For one experiment, the system named is H358 lung cells. Put plainly: long-term proliferation assay, H358. The class given is cell-based. The note with it: MEK inhibitor selumetinib (FIG. 2). On the procedure: FIG. 1 Suppression of ERBB3 by shRNA enhances response to MEK inhibitor. H358 KRAS mutant (Non-Small Cell Lung Cancer (NSCLC) cells were infected with two independent shRNAs targeting ERBB3 as indicated. pLKO vector serves as a control vector. After puromycin selection, cells were cultured in the absence or presence of 1 μM selumetinib for 20 days.
FIG. 2 […] lung cancer cells were cultured in increasing concentration of MEK inhibitor selumetinib alone, EGFR inhibitor gefitinib alone, ERBB2 inhibitor CP724714 alone, EGFR/ERBB2 dual inhibitor afatinib, EGFR/ERBB2 dual inhibitor dacomitinib alone or their combinations as indicated. Cells were harvested, fixed and stained after 21 days.
Recently the use of a kinome-centered synthetic lethal screening approach, which enables the identification of kinases whose inhibition is strongly synergistic with a cancer drug of interest has been described (Prahallad et al., 2012). […] Each of these knockdown vectors has a unique DNA-based molecular bar code identifier, which allows quantification of the relative abundance of each of the shRNA vectors in the presence and absence of drug (Prahallad et al., 2012). […] After 21 days, genomic DNA was isolated from both cells of the treated and untreated populations and the bar codes contained in the shRNA cassettes were recovered by PCR and their abundance determined by deep sequencing. […]

The test system of a further experiment is SW837 colon cells. Put plainly: long-term proliferation assay, SW837. In kind it is cell-based. Particulars: MEK inhibitor selumetinib (FIG. 3).

The structures appear in SMILES notation.

`COc1cc2ncnc(Nc3ccc(F)c(Cl)c3)c2cc1NC(=O)/C=C/CN1CCCCC1` [dacometinib]: the “synergy with MEK inhibition in long-term proliferation assays” value in the experiment with H358 lung cells and with SW837 colon cells was “strong synergy” in each case.

The values are drawn from US10398696B2, “Combinations for treatment of cancer” (Stichting Het Nederlands Kanker Instituut-Antoni van …, priority 2013, dated 2019).
